{"source": "patent US20260286287A1", "about": "“NOVEL BACTERIAL STRAIN USEFUL FOR TREATING CUTANEOUS INFLAMMATION” (PIERRE FABRE DERMO-COSMETIQUE, priority 2023, published 2026)", "key": {"[1]": {"test_system": "normal human epidermal keratinocytes (NHEK) stimulated by an inflammatory cytokine mix (IL-4+IL-13+IL-22+TNF-α)", "experiment": "Gene expression (RT-qPCR) in cytokine-stimulated normal human epidermal keratinocytes, in vitro model of chronic atopic dermatitis", "format": "cell-based", "protocol": "The effects of the bacterial extracts prepared in example 3 (i.e., L0, BL0, S0 and ES0) on gene expression were assessed with normal human epidermal keratinocytes (NHEK) which have been stimulated by an inflammatory cytokine mix (IL-4+IL-13+IL-22+TNF-α), a particularly useful model representative of the chronic phase of atopic dermatitis.\nKeratinocytes were seeded in 24-well plates and grown for 24 hours in growth medium with culture conditions at 37° C. and 5% C02. The growth medium comprised Keratinocyte SFM (Serum Free Medium) supplemented with Epidermal Growth Factor (EGF) 0.25 ng/ml, Pituitary extract (PE) 25 μg/ml and Gentamycin 25 μg/ml. The medium was then removed and replaced by assay medium containing either no added extract or compound (negative control), one of the bacterial extracts of example 3 (L0, BL0, S0 or ES0), or the reference compound (JAK Inhibitor | at 10 μM). Cells were then pre-incubated for 24 hours. The assay medium comprised Keratinocyte SFM supplemented with Gentamycin 25 μg/ml.\nAfter pre-incubation, the assay medium was renewed, the mix of cytokines (IL-4+IL-13+TNF-α +IL-22, each at 10 ng/ml) added and the cells then incubated for 24 hours. Cytokine stimulation induces a phenotype in NHEK which is similar to the one observed during the chronic phase of atopic dermatitis (Bernard et al., 2012). In parallel, non-stimulated controls are performed.\nAll experiments were performed in triplicate (n=3).\nCells from the replicates of the same experimental condition were pooled.\nTotal RNA was extracted with TriPure Isolation Reagent® (Roche Molecular System Inc.) according to the supplier's instruction. The complementary DNA (cDNA) was synthetised by reverse transcription of total RNA in presence of oligo (dT) and Transcriptor Reverse Transcriptase (Roche Molecular System Inc.).\nRT-qPCR (real time quantitative PCR) was used to analyse the expression of markers in total RNA extracted from the cell monolayers of each experimental condition. The LightCycler® system (Roche Molecular System Inc.) was used according to the supplier's instruction,\nTwo reference genes (GAPDH and RPS28) were used in the PCR array for data normalisation because of their constitutive expression. Consequently, the level of expression of the target markers was compared to the mean expression level of these 2 markers for all test conditions.\nDifferent genes markers are reported: • barrier function, differentiation, lipid and desquamation markers: coding gene of Small Proline Rich Protein 1B (SPRR1B), coding gene of Kallikrein Related Peptidase 7 (KLK7), coding gene of Involucrin (IVL), coding gene of Caspase 14 (CASP14), coding gene of Sciellin (SCEL) and coding gene of sulfotransferase family, cytosolic, 2B, member 1 (SULT2B1); • antimicrobial and innate immunity markers: coding gene of serpin peptidase inhibitor, clade B, member 13 (SERPINB13), coding gene of calcium binding protein A7 (S100A7), coding gene of Toll-like receptor 2 (TLR2); • inflammation markers: coding gene of Chemokine (C-C motif) ligand 5 (CCL5), coding gene of Chemokine (C-C motif) ligand 27 (CCL27) and coding gene of interleukin 13 receptor, alpha 2 (IL13RA2)."}, "[2]": {"test_system": "bacterial strain LMB275", "experiment": "Sensitivity of the bacterial strain to antibiotics, disc diffusion method", "format": "cell-based, Aquabacterium strain LMB275", "details": "modified R2A agar, 48 and 72 h at 30° C.", "protocol": "The sensitivity of the bacterial strain to antibiotics was tested by the disc diffusion method after spreading cell suspensions (8.0 McFarland) on modified R2A agar plates. The antibiotics and their concentration used on filter-paper discs for the susceptibility assay are listed in the species definition. The effect of antibiotics on cell growth was assessed after 48 and 72 h at 30° C."}, "[3]": {"details": "NHEK, cytokine mix 10 ng/ml + JAK inhibitor I 10 μM, Mean HK normalisation"}, "[4]": {"details": "NHEK, cytokine mix 10 ng/ml + JAK inhibitor I 10 μM, Mean HK normalisation, 1440 min"}, "[5]": {"details": "cytokine-stimulated NHEK, JAK inhibitor I 10 μM"}, "[6]": {"details": "cytokine-stimulated NHEK, JAK inhibitor I 10 μM, listed as JAK Inhibitor I"}}, "data": [{"compound": "CC(C)(C)c1nc2c3cc[nH]c(=O)c3c3cc(F)ccc3c2[nH]1", "note": "[JAK inhibitor I]", "values": [{"measurement": "SPRR1B gene expression", "setting": "[1]; [3]", "value": 557, "unit": "% control"}, {"measurement": "SULT2B1 gene expression", "setting": "[1]; [3]", "value": 231, "unit": "% control"}, {"measurement": "CASP14 gene expression", "setting": "[1]; [4]", "value": 199, "unit": "% control"}, {"measurement": "CCL5 gene expression", "setting": "[1]; [4]", "value": 23, "unit": "% control"}, {"measurement": "CCL27 gene expression", "setting": "[1]; [4]", "value": 72, "unit": "% control"}, {"measurement": "IL13RA2 gene expression", "setting": "[1]; [4]", "value": 12, "unit": "% control"}, {"measurement": "IVL gene expression", "setting": "[1]; [4]", "value": 986, "unit": "% control"}, {"measurement": "KLK7 gene expression", "setting": "[1]; [4]", "value": 146, "unit": "% control"}, {"measurement": "S100A7 gene expression", "setting": "[1]; [4]", "value": 94, "unit": "% control"}, {"measurement": "SCEL gene expression", "setting": "[1]; [4]", "value": 141, "unit": "% control"}, {"measurement": "SERPINB13 gene expression", "setting": "[1]; [4]", "value": 27, "unit": "% control"}, {"measurement": "TLR2 gene expression", "setting": "[1]; [4]", "value": 21, "unit": "% control"}, {"measurement": "expression of antimicrobial and innate immunity markers (in words)", "setting": "[1]; [5]", "value": "decrease"}, {"measurement": "expression of inflammation markers (in words)", "setting": "[1]; [5]", "value": "decrease"}, {"measurement": "expression of keratinocyte differentiation markers (in words)", "setting": "[1]; [5]", "value": "increase"}, {"measurement": "expression of antimicrobial and innate immunity markers (in words)", "setting": "[1]; [6]", "value": "down-regulating"}, {"measurement": "expression of inflammation markers (in words)", "setting": "[1]; [6]", "value": "down-regulating"}]}, {"compound": "CC1(C)S[C@@H]2[C@H](NC(=O)[C@H](N)c3ccc(O)cc3)C(=O)N2[C@H]1C(=O)O", "note": "[amoxicillin]", "values": [{"measurement": "sensitivity of the bacterial strain to the antibiotic", "setting": "[2]; disc 30 μg", "value": "resistant"}]}, {"compound": "CC1(C)S[C@@H]2[C@H](NC(=O)[C@H](N)c3ccccc3)C(=O)N2[C@H]1C(=O)O", "note": "[ampicillin]", "values": [{"measurement": "sensitivity of the bacterial strain to the antibiotic", "setting": "[2]; disc 10 μg", "value": "resistant"}]}, {"compound": "CO/N=C(\\C(=O)N[C@@H]1C(=O)N2C(C(=O)O)=C(COC(C)=O)CS[C@H]12)c1csc(N)n1", "note": "[cefotaxim]", "values": [{"measurement": "sensitivity of the bacterial strain to the antibiotic", "setting": "[2]; disc 30 μg", "value": "resistant"}]}, {"compound": "O=C(N[C@H](CO)[C@H](O)c1ccc([N+](=O)[O-])cc1)C(Cl)Cl", "note": "[chloramphenicol]", "values": [{"measurement": "sensitivity of the bacterial strain to the antibiotic", "setting": "[2]; disc 30 μg", "value": "sensitive"}]}, {"compound": "O=C(O)c1cn(C2CC2)c2cc(N3CCNCC3)c(F)cc2c1=O", "note": "[ciprofloxacin]", "values": [{"measurement": "sensitivity of the bacterial strain to the antibiotic", "setting": "[2]; disc 5 μg", "value": "sensitive"}]}, {"compound": "CC[C@H]1OC(=O)[C@H](C)[C@@H](O[C@H]2C[C@@](C)(OC)[C@@H](O)[C@H](C)O2)[C@H](C)[C@@H](O[C@@H]2O[C@H](C)C[C@H](N(C)C)[C@H]2O)[C@](C)(O)C[C@@H](C)C(=O)[C@H](C)[C@@H](O)[C@]1(C)O", "note": "[erythromycin]", "values": [{"measurement": "sensitivity of the bacterial strain to the antibiotic", "setting": "[2]; disc 15 μg", "value": "sensitive"}]}, {"compound": "C[C@@H](O)[C@H]1C(=O)N2C(C(=O)O)=C(SCCN=CN)C[C@H]12", "note": "[imipenem]", "values": [{"measurement": "sensitivity of the bacterial strain to the antibiotic", "setting": "[2]; disc 10 μg", "value": "sensitive"}]}, {"compound": "NC[C@H]1O[C@H](O[C@H]2[C@H](O)[C@@H](O[C@H]3O[C@H](CO)[C@@H](O)[C@H](N)[C@H]3O)[C@H](N)C[C@@H]2N)[C@H](O)[C@@H](O)[C@@H]1O", "note": "[kanamycin]", "values": [{"measurement": "sensitivity of the bacterial strain to the antibiotic", "setting": "[2]; disc 30 μg", "value": "sensitive"}]}, {"compound": "CC1COc2c(N3CCN(C)CC3)c(F)cc3c(=O)c(C(=O)O)cn1c23", "note": "(centres unmarked) [ofloxacin]", "values": [{"measurement": "sensitivity of the bacterial strain to the antibiotic", "setting": "[2]; disc 5 μg", "value": "sensitive"}]}, {"compound": "CC1(C)S[C@@H]2[C@H](NC(=O)Cc3ccccc3)C(=O)N2[C@H]1C(=O)O", "note": "[penicillin]", "values": [{"measurement": "sensitivity of the bacterial strain to the antibiotic", "setting": "[2]; disc 10 UI", "value": "resistant"}]}, {"compound": "CO[C@H]1/C=C/O[C@@]2(C)Oc3c(C)c(O)c4c(O)c(c(/C=N/N5CCN(C)CC5)c(O)c4c3C2=O)NC(=O)/C(C)=C\\C=C\\[C@H](C)[C@H](O)[C@@H](C)[C@@H](O)[C@@H](C)[C@H](OC(C)=O)[C@@H]1C", "note": "[rifampicin]", "values": [{"measurement": "sensitivity of the bacterial strain to the antibiotic", "setting": "[2]; disc 30 μg", "value": "sensitive"}]}, {"compound": "[H]/N=C(/N)N[C@H]1[C@H](O)[C@@H](O)[C@H](O[C@@H]2O[C@@H](C)[C@](O)(C=O)[C@H]2O[C@@H]2O[C@@H](CO)[C@H](O)[C@@H](O)[C@@H]2NC)[C@@H](N/C(N)=N\\[H])[C@@H]1O", "note": "[streptomycin]", "values": [{"measurement": "sensitivity of the bacterial strain to the antibiotic", "setting": "[2]; disc 10 μg", "value": "sensitive"}]}, {"compound": "CN(C)[C@@H]1C(=O)C(C(N)=O)=C(O)[C@@]2(O)C(=O)C3=C(O)c4c(O)cccc4[C@@](C)(O)[C@H]3C[C@@H]12", "note": "[tetracyclin]", "values": [{"measurement": "sensitivity of the bacterial strain to the antibiotic", "setting": "[2]; disc 30 μg", "value": "sensitive"}]}, {"compound": "CN[C@H](CC(C)C)C(=O)N[C@H]1C(=O)N[C@@H](CC(N)=O)C(=O)N[C@H]2C(=O)N[C@H]3C(=O)N[C@H](C(=O)N[C@H](C(=O)O)c4cc(O)cc(O)c4-c4cc3ccc4O)[C@H](O)c3ccc(c(Cl)c3)Oc3cc2cc(c3O[C@@H]2O[C@H](CO)[C@@H](O)[C@H](O)[C@H]2O[C@H]2C[C@](C)(N)[C@H](O)[C@H](C)O2)Oc2ccc(cc2Cl)[C@H]1O", "note": "[vancomycin]", "values": [{"measurement": "sensitivity of the bacterial strain to the antibiotic", "setting": "[2]; disc 30 μg", "value": "sensitive"}]}, {"compound": "polymixin B", "values": [{"measurement": "sensitivity of the bacterial strain to the antibiotic", "setting": "[2]; disc 300 UI", "value": "resistant"}]}]}
